Tests used:
late watergrass = test: Test Example 1: herbicidal activity, application before weed generation under submerged conditions (Table 16, symbol A); assay type: in vivo, late watergrass (Echinochloa oryzicola)
Method in brief: (§1)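 Submerged Wagner pots (alluvial soil, 4 cm water) sown with weed seeds and planted with 2.5-leaf rice seedlings; emulsifiable concentrate diluted in water applied to water surface on sowing day. Held in greenhouse at 25-30 °C; injury scored 0-5 by herbicidal rate after three weeks.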

Japanese bulrush = test: Test Example 1: herbicidal activity, application before weed generation under submerged conditions (Table 16, symbol B); assay type: in vivo, Japanese bulrush (Schoenoplectus juncoides)
Method in brief: as §1

oval-leafed pondweed = test: Test Example 1: herbicidal activity, application before weed generation under submerged conditions (Table 16, symbol C); assay type: in vivo, oval-leafed pondweed (Monochoria vaginalis)
Method in brief: as §1

barnyard grass [1] = test: Test Example 3: herbicidal effect by foliage application, Wagner pot (Table 18, symbol H); assay type: in vivo, barnyard grass (Echinochloa crus-galli); conditions: 320 g/ha
Method in brief: (§2)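 Plants were sown in alluvial soil held under 0.1–0.5 cm standing water and grown 14 days in a greenhouse at 25–30 °C. An emulsifiable formulation, water-diluted to the set dose, was then sprayed onto the foliage, and effects were scored three weeks later using previously defined criteria.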

Chinese sprangletop = test: Test Example 3: herbicidal effect by foliage application, Wagner pot (Table 18, symbol D); assay type: in vivo, chinese sprangletop (Leptochloa chinensis); conditions: 320 g/ha
Method in brief: as §2

rice flat sedge = test: Test Example 3: herbicidal effect by foliage application, Wagner pot (Table 18, symbol E); assay type: in vivo, rice flat sedge (Cyperus iria); conditions: 320 g/ha
Method in brief: as §2

southern crabgrass [2] = test: Test Example 4: herbicidal effect by soil treatment (Table 19, symbol F); assay type: in vivo, southern crabgrass (Digitaria ciliaris); conditions: amount of applied herbicide 320 g/ha
Method in brief: (§3)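 Soil-surface application: an emulsion agent diluted with water to the predetermined dose is sprayed uniformly over seeds lying under roughly 1.5 cm of sterilized diluvial soil. Boxes stay in a greenhouse at 25° C. to 30° C. Three weeks later, each species is graded on previously defined criteria.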

green foxtail [3] = test: Test Example 4: herbicidal effect by soil treatment (Table 19, symbol G); assay type: in vivo, green foxtail (Setaria viridis); conditions: amount of applied herbicide 320 g/ha
Method in brief: as §3

barnyard grass [4] = test: Test Example 4: herbicidal effect by soil treatment (Table 19, symbol H); assay type: in vivo, barnyard grass (Echinochloa crus-galli); conditions: amount of applied herbicide 320 g/ha
Method in brief: as §3

wild oat [5] = test: Test Example 4: herbicidal effect by soil treatment (Table 19, symbol I); assay type: in vivo, wild oat (Avena fatua); conditions: amount of applied herbicide 320 g/ha
Method in brief: as §3

blackgrass [6] = test: Test Example 4: herbicidal effect by soil treatment (Table 19, symbol J); assay type: in vivo, blackgrass (Alopecurus myosuroides); conditions: amount of applied herbicide 320 g/ha
Method in brief: as §3

Italian ryegrass [7] = test: Test Example 4: herbicidal effect by soil treatment (Table 19, symbol K); assay type: in vivo, Italian ryegrass (Lolium multiflorum); conditions: amount of applied herbicide 320 g/ha
Method in brief: as §3

windgrass [8] = test: Test Example 4: herbicidal effect by soil treatment (Table 19, symbol L); assay type: in vivo, windgrass (Apera spica-venti); conditions: amount of applied herbicide 320 g/ha
Method in brief: as §3

velvetleaf [9] = test: Test Example 4: herbicidal effect by soil treatment (Table 19, symbol M); assay type: in vivo, velvetleaf (Abutilon theophrasti); conditions: amount of applied herbicide 320 g/ha
Method in brief: as §3

redroot pigweed [10] = test: Test Example 4: herbicidal effect by soil treatment (Table 19, symbol N); assay type: in vivo, redroot pigweed (Amaranthus retroflexus); conditions: amount of applied herbicide 320 g/ha
Method in brief: as §3

lambsquarters [11] = test: Test Example 4: herbicidal effect by soil treatment (Table 19, symbol O); assay type: in vivo, lambsquarters (Chenopodium album); conditions: amount of applied herbicide 320 g/ha
Method in brief: as §3

chickweed [12] = test: Test Example 4: herbicidal effect by soil treatment (Table 19, symbol P); assay type: in vivo, common chickweed (Stellaria media); conditions: amount of applied herbicide 320 g/ha
Method in brief: as §3

false cleavers [13] = test: Test Example 4: herbicidal effect by soil treatment (Table 19, symbol Q); assay type: in vivo, false cleavers (Galium spurium); conditions: amount of applied herbicide 320 g/ha
Method in brief: as §3

persian speedwell [14] = test: Test Example 4: herbicidal effect by soil treatment (Table 19, symbol R); assay type: in vivo, Persian speedwell (Veronica persica); conditions: amount of applied herbicide 320 g/ha
Method in brief: as §3

southern crabgrass [15] = test: Test Example 5: herbicidal effect by foliage application, plastic box (Table 20, symbol F); assay type: in vivo, southern crabgrass (Digitaria ciliaris); conditions: foliage application, 320 g/ha, three weeks after application
Method in brief: (§4)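 Sow seeds spot-wise in sterilized diluvial soil; cover with ~1.5 cm soil. Grow 14 days in greenhouse, 25° C. to 30° C. Spray foliage with emulsion diluted to predetermined amount. Rate effect after 3 weeks.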

green foxtail [16] = test: Test Example 5: herbicidal effect by foliage application, plastic box (Table 20, symbol G); assay type: in vivo, green foxtail (Setaria viridis); conditions: foliage application, 320 g/ha, three weeks after application
Method in brief: as §4

barnyard grass [17] = test: Test Example 5: herbicidal effect by foliage application, plastic box (Table 20, symbol H); assay type: in vivo, barnyard grass (Echinochloa crus-galli); conditions: foliage application, 320 g/ha, three weeks after application
Method in brief: as §4

wild oat [18] = test: Test Example 5: herbicidal effect by foliage application, plastic box (Table 20, symbol I); assay type: in vivo, wild oat (Avena fatua); conditions: foliage application, 320 g/ha, three weeks after application
Method in brief: as §4

blackgrass [19] = test: Test Example 5: herbicidal effect by foliage application, plastic box (Table 20, symbol J); assay type: in vivo, blackgrass (Alopecurus myosuroides); conditions: foliage application, 320 g/ha, three weeks after application
Method in brief: as §4

Italian ryegrass [20] = test: Test Example 5: herbicidal effect by foliage application, plastic box (Table 20, symbol K); assay type: in vivo, Italian ryegrass (Lolium multiflorum); conditions: foliage application, 320 g/ha, three weeks after application
Method in brief: as §4

velvetleaf [21] = test: Test Example 5: herbicidal effect by foliage application, plastic box (Table 20, symbol M); assay type: in vivo, velvetleaf (Abutilon theophrasti); conditions: foliage application, 320 g/ha, three weeks after application
Method in brief: as §4

redroot pigweed [22] = test: Test Example 5: herbicidal effect by foliage application, plastic box (Table 20, symbol N); assay type: in vivo, redroot pigweed (Amaranthus retroflexus); conditions: foliage application, 320 g/ha, three weeks after application
Method in brief: as §4

lambsquarters [23] = test: Test Example 5: herbicidal effect by foliage application, plastic box (Table 20, symbol O); assay type: in vivo, lambsquarters (Chenopodium album); conditions: foliage application, 320 g/ha, three weeks after application
Method in brief: as §4

chickweed [24] = test: Test Example 5: herbicidal effect by foliage application, plastic box (Table 20, symbol P); assay type: in vivo, common chickweed (Stellaria media); conditions: foliage application, 320 g/ha, three weeks after application
Method in brief: as §4

false cleavers [25] = test: Test Example 5: herbicidal effect by foliage application, plastic box (Table 20, symbol Q); assay type: in vivo, false cleavers (Galium spurium); conditions: foliage application, 320 g/ha, three weeks after application
Method in brief: as §4

persian speedwell [26] = test: Test Example 5: herbicidal effect by foliage application, plastic box (Table 20, symbol R); assay type: in vivo, Persian speedwell (Veronica persica); conditions: foliage application, 320 g/ha, three weeks after application
Method in brief: as §4

windgrass [27] = test: Test Example 5: herbicidal effect by foliage application, plastic box (Table 20, symbol L); assay type: in vivo, windgrass (Apera spica-venti); conditions: foliage application, 320 g/ha, three weeks after application
Method in brief: as §4

[28] = amount of applied herbicide 320 g/ha

CCCC(=O)Oc1c(C)nn(C)c(=O)c1-c1c(-c2ccc(C(C)=O)cc2)sc2ccccc12 [1-042]
Herbicidal effect on A: late watergrass (grade 0-5) (late watergrass; 320 g/ha applied herbicide): 3 (Herbicidal rate of 40% or more and less than 70%)
Herbicidal effect on B: Japanese bulrush (grade 0-5) (Japanese bulrush; 320 g/ha applied herbicide): 4 (Herbicidal rate of 70% or more and less than 90%)
Herbicidal effect on C: oval-leafed pondweed (grade 0-5) (oval-leafed pondweed; 320 g/ha applied herbicide): 3 (Herbicidal rate of 40% or more and less than 70%)
herbicidal effect on H (barnyard grass), rating 0-5 (barnyard grass [1]): 3 (Herbicidal rate of 40% or more and less than 70%)
herbicidal effect on D (Chinese sprangletop), rating 0-5 (Chinese sprangletop): 0 (Herbicidal rate of 5% or less (almost no effect))
herbicidal effect on E (rice flat sedge), rating 0-5 (rice flat sedge): 5 (Herbicidal rate of 90% or more (almost completely withered))
herbicidal effect rating, F: southern crabgrass (southern crabgrass [2]): 2 (Herbicidal rate of 20% or more and less than 40%)
herbicidal effect rating, G: green foxtail (green foxtail [3]): 3 (Herbicidal rate of 40% or more and less than 70%)
herbicidal effect rating, H: barnyard grass (barnyard grass [4]): 0 (Herbicidal rate of 5% or less (almost no effect))
herbicidal effect rating, I: wild oat (wild oat [5]): 0 (Herbicidal rate of 5% or less (almost no effect))
herbicidal effect rating, J: blackgrass (blackgrass [6]): 0 (Herbicidal rate of 5% or less (almost no effect))
herbicidal effect rating, K: Italian ryegrass (Italian ryegrass [7]): 3 (Herbicidal rate of 40% or more and less than 70%)
herbicidal effect rating, L: windgrass (windgrass [8]): 0 (Herbicidal rate of 5% or less (almost no effect))
herbicidal effect rating, M: velvetleaf (velvetleaf [9]): 3 (Herbicidal rate of 40% or more and less than 70%)
herbicidal effect rating, N: redroot pigweed (redroot pigweed [10]): 5 (Herbicidal rate of 90% or more (almost completely withered))
herbicidal effect rating, O: lambsquarters (lambsquarters [11]): 3 (Herbicidal rate of 40% or more and less than 70%)
herbicidal effect rating, P: chickweed (chickweed [12]): 4 (Herbicidal rate of 70% or more and less than 90%)
herbicidal effect rating, Q: false cleavers (false cleavers [13]): 0 (Herbicidal rate of 5% or less (almost no effect))
herbicidal effect rating, R: persian speedwell (persian speedwell [14]): 5 (Herbicidal rate of 90% or more (almost completely withered))
herbicidal effect grade, F: southern crabgrass (southern crabgrass [15]): 3 (Herbicidal rate of 40% or more and less than 70%)
herbicidal effect grade, G: green foxtail (green foxtail [16]): 3 (Herbicidal rate of 40% or more and less than 70%)
herbicidal effect grade, H: barnyard grass (barnyard grass [17]): 3 (Herbicidal rate of 40% or more and less than 70%)
herbicidal effect grade, I: wild oat (wild oat [18]): 0 (Herbicidal rate of 5% or less (almost no effect))
herbicidal effect grade, J: blackgrass (blackgrass [19]): 0 (Herbicidal rate of 5% or less (almost no effect))
herbicidal effect grade, K: Italian ryegrass (Italian ryegrass [20]): 4 (Herbicidal rate of 70% or more and less than 90%)
herbicidal effect grade, M: velvetleaf (velvetleaf [21]): 5 (Herbicidal rate of 90% or more (almost completely withered))
herbicidal effect grade, N: redroot pigweed (redroot pigweed [22]): 4 (Herbicidal rate of 70% or more and less than 90%)
herbicidal effect grade, O: lambsquarters (lambsquarters [23]): 3 (Herbicidal rate of 40% or more and less than 70%)
herbicidal effect grade, P: chickweed (chickweed [24]): 5 (Herbicidal rate of 90% or more (almost completely withered))
herbicidal effect grade, Q: false cleavers (false cleavers [25]): 2 (Herbicidal rate of 20% or more and less than 40%)
herbicidal effect grade, R: persian speedwell (persian speedwell [26]): 5 (Herbicidal rate of 90% or more (almost completely withered))

CCCC(=O)Oc1c(C)nn(C)c(=O)c1-c1c(-c2ccc3c(c2)OCCO3)sc2cc(C)ccc12 [3-060]
Herbicidal effect, A: late watergrass (late watergrass; [28]): 1 (Herbicidal rate of 5% or more and less than 20%)
Herbicidal effect, B: Japanese bulrush (Japanese bulrush; [28]): 2 (Herbicidal rate of 20% or more and less than 40%)
Herbicidal effect, C: oval-leafed pondweed (oval-leafed pondweed; [28]): 0 (Herbicidal rate of 5% or less (almost no effect))
herbicidal effect on barnyard grass (H) (barnyard grass [1]): 3 (Herbicidal rate of 40% or more and less than 70%)
herbicidal effect on Chinese sprangletop (D) (Chinese sprangletop): 4 (Herbicidal rate of 70% or more and less than 90%)
herbicidal effect on rice flat sedge (E) (rice flat sedge): 3 (Herbicidal rate of 40% or more and less than 70%)
F: southern crabgrass, herbicidal effect grade (southern crabgrass [2]): 0 (Herbicidal rate of 5% or less (almost no effect))
G: green foxtail, herbicidal effect grade (green foxtail [3]): 0 (Herbicidal rate of 5% or less (almost no effect))
H: barnyard grass, herbicidal effect grade (barnyard grass [4]): 0 (Herbicidal rate of 5% or less (almost no effect))
I: wild oat, herbicidal effect grade (wild oat [5]): 0 (Herbicidal rate of 5% or less (almost no effect))
J: blackgrass, herbicidal effect grade (blackgrass [6]): 0 (Herbicidal rate of 5% or less (almost no effect))
K: Italian ryegrass, herbicidal effect grade (Italian ryegrass [7]): 0 (Herbicidal rate of 5% or less (almost no effect))
L: windgrass, herbicidal effect grade (windgrass [8]): 0 (Herbicidal rate of 5% or less (almost no effect))
M: velvetleaf, herbicidal effect grade (velvetleaf [9]): 0 (Herbicidal rate of 5% or less (almost no effect))
N: redroot pigweed, herbicidal effect grade (redroot pigweed [10]): 0 (Herbicidal rate of 5% or less (almost no effect))
P: chickweed, herbicidal effect grade (chickweed [12]): 0 (Herbicidal rate of 5% or less (almost no effect))
Q: false cleavers, herbicidal effect grade (false cleavers [13]): 0 (Herbicidal rate of 5% or less (almost no effect))
R: persian speedwell, herbicidal effect grade (persian speedwell [14]): 3 (Herbicidal rate of 40% or more and less than 70%)
F: southern crabgrass, herbicidal effect grade (southern crabgrass [15]): 0 (Herbicidal rate of 5% or less (almost no effect))
G: green foxtail, herbicidal effect grade (green foxtail [16]): 0 (Herbicidal rate of 5% or less (almost no effect))
H: barnyard grass, herbicidal effect grade (barnyard grass [17]): 0 (Herbicidal rate of 5% or less (almost no effect))
I: wild oat, herbicidal effect grade (wild oat [18]): 0 (Herbicidal rate of 5% or less (almost no effect))
J: blackgrass, herbicidal effect grade (blackgrass [19]): 3 (Herbicidal rate of 40% or more and less than 70%)
K: Italian ryegrass, herbicidal effect grade (Italian ryegrass [20]): 0 (Herbicidal rate of 5% or less (almost no effect))
L: windgrass, herbicidal effect grade (windgrass [27]): 3 (Herbicidal rate of 40% or more and less than 70%)
M: velvetleaf, herbicidal effect grade (velvetleaf [21]): 0 (Herbicidal rate of 5% or less (almost no effect))
N: redroot pigweed, herbicidal effect grade (redroot pigweed [22]): 0 (Herbicidal rate of 5% or less (almost no effect))
O: lambsquarters, herbicidal effect grade (lambsquarters [23]): 0 (Herbicidal rate of 5% or less (almost no effect))
P: chickweed, herbicidal effect grade (chickweed [24]): 5 (Herbicidal rate of 90% or more (almost completely withered))
Q: false cleavers, herbicidal effect grade (false cleavers [25]): 0 (Herbicidal rate of 5% or less (almost no effect))
R: persian speedwell, herbicidal effect grade (persian speedwell [26]): 5 (Herbicidal rate of 90% or more (almost completely withered))

Source: US20230085307A1, “PYRIDAZINONE COMPOUND AND HERBICIDE” (NISSAN CHEMICAL CORPORATION, priority 2019, published 2023)
